Results: article PMC9372421 (Clinical and Translational Science, 2022)
In brackets after ≈: the same amount, converted by molar mass. Several values for one entry are separate records, joined by “and”; a condition that tells them apart may be missing. Equal values may be shown once. Read-outs that look alike come from different tables or passages of the source.

Legend:
[1] = target: T1, human NaV1.5 sodium channel (Homo sapiens, UniProt Q14524); type: cell-based
[2] = target: T1, human NaV1.5 sodium channel
canine purkinje fibers = settings: 30 μM; historical nonclinical assessment, data not reported; cited from earlier work
[3] = lamotrigine containing regimens vs. no ASMs, cited from earlier work
[4] = human, in vivo
hERG potassium channel = settings: cited from earlier work
[5] = human, in vivo; remark: listed apart in the source
[6] = target: T1, human NaV1.5 sodium channel; assay: cell-based; settings: IC50 block of late NaV1.5 current, mean ± SEM
[7] = target: T1, human NaV1.5 sodium channel; remark: listed apart in the source
[8] = lamotrigine 15 μg/ml; cited from earlier work
[9] = target: T1, human NaV1.5 sodium channel; assay: cell-based; settings: IC50 block of peak NaV1.5 current, HEK293, mean ± SEM
[10] = cited from earlier work
[11] = target: T1, human NaV1.5 sodium channel; remark: listed apart in the source
[12] = healthy subjects; cited from earlier work
[13] = each drug at or near its IC50, V hold = −120 mV
[14] = each drug at or near its IC50, lamotrigine 280 µM, V hold = −120 mV
[15] = each drug at or near its IC50, lamotrigine 280 μM, mean ± SEM

T1 sequence (Q14524 whole entry): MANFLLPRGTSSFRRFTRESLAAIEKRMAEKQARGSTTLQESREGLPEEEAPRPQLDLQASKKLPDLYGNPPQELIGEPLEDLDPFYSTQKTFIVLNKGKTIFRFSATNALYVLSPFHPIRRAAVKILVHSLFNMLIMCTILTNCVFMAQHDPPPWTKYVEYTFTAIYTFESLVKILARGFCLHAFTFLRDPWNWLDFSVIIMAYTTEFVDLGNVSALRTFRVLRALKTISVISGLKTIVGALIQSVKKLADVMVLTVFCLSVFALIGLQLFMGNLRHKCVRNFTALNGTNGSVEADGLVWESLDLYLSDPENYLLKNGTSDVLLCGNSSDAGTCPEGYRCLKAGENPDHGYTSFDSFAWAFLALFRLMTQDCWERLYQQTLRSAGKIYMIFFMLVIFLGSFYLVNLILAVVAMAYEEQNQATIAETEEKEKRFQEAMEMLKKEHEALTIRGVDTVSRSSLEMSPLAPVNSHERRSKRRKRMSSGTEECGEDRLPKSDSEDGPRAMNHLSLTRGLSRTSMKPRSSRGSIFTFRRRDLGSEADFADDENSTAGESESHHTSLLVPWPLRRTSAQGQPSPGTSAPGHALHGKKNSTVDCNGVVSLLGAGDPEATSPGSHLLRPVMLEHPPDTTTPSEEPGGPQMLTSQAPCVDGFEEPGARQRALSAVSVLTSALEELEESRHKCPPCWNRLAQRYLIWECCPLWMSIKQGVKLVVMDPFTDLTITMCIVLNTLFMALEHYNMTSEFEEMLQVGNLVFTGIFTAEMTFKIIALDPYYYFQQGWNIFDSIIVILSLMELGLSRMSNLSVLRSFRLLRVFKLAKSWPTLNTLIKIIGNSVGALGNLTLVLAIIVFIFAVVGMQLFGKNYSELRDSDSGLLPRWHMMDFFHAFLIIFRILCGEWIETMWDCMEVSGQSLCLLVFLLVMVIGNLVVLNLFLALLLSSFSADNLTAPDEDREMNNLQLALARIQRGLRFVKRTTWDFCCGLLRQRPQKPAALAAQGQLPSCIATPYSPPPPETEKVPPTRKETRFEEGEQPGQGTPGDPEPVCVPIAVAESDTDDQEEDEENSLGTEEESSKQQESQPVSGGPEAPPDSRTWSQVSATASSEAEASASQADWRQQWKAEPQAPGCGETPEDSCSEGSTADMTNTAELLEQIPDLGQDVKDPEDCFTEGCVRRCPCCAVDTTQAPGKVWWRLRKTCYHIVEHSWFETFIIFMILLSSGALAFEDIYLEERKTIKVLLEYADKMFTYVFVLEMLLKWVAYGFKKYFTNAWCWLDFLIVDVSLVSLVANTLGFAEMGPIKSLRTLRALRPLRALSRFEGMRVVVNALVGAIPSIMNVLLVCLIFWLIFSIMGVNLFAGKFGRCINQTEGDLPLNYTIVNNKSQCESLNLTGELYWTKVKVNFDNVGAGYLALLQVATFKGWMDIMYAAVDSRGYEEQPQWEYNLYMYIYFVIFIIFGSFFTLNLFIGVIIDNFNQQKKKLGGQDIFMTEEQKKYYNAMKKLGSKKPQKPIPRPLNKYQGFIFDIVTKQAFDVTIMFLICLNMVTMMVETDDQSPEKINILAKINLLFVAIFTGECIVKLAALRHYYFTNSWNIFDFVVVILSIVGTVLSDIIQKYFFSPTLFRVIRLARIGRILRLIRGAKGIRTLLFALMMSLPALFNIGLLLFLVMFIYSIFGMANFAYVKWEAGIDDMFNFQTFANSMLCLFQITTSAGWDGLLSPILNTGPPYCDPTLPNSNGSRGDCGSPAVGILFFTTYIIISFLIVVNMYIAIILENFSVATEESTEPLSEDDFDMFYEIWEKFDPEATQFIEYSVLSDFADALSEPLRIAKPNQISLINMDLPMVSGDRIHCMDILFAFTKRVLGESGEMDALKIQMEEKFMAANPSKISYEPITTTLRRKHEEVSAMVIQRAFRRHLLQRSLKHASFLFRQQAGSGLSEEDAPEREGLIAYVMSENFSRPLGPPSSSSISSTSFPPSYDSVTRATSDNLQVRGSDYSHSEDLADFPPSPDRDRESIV

**Q.** For `O=C(NCC1CCCCN1)c1cc(OCC(F)(F)F)ccc1OCC(F)(F)F` (centres unmarked) [flecainide], which “τon contribution by the slow component of the exponential” value [1, 13] is on record?
**A.** 45.1%

**Q.** And the “τon Percent Fast” value [1, 14]?
**A.** 54.9%

**Q.** What about the “Tonic block of NaV1.5, percent inhibition” value [2, 15] of the same compound?
**A.** 1.6 ± 1.2%

**Q.** With `Nc1nnc(-c2cccc(Cl)c2Cl)c(N)n1` [lamotrigine, Lamotrigine] as the compound, how does the “inhibition of action potential upstroke (dV/dt)” value (canine purkinje fibers) read?
**A.** < 10%

**Q.** And the “τon fast component, fold of mexiletine” value [1]?
**A.** ≤ 1.6 fold

**Q.** What about the “τon Percent Fast” value [1, 14] of the same compound?
**A.** > 92%

**Q.** And the “% block at 200th pulse” value ([1]; lamotrigine 25 µM, V hold = −120 mV)?
**A.** 25.5 ± 1.5% and 26%

**Q.** And the “τon fast component, fold faster than flecainide” value ([1]; lamotrigine versus flecainide)?
**A.** 8.4 fold

**Q.** What about the “τon fast component, fold faster than quinidine” value ([1]; lamotrigine versus quinidine) of the same compound?
**A.** 4.7 fold

**Q.** What about the “SUDEP odds ratio (OR)” value ([3]; 95% CI: 0.31–0.97) of the same compound?
**A.** 0.55

**Q.** And the “reduction in SUDEP risk” value [3]?
**A.** 45%

**Q.** And the “Tonic block of NaV1.5, percent inhibition” value [2, 15]?
**A.** 26.8 ± 1.4%

**Q.** And the “Tonic block of NaV1.5, percent inhibition” value ([2]; lamotrigine 25 μM, mean ± SEM)?
**A.** 2.6 ± 2.1%

**Q.** And the free concentration [4]?
**A.** 6600 ng/mL

**Q.** What about the peak unbound concentration [4] of the same compound?
**A.** 3.15 to 24.5 µM

**Q.** And the IC50 (hERG potassium channel)?
**A.** 229 µM

**Q.** And the “potency (IC50) to block the hERG potassium channel” value (hERG potassium channel)?
**A.** 58.6 µg/mL (≈ 229 µM)

**Q.** And the “safety reports relating to the circulatory system” value [5]?
**A.** 1483 reports

**Q.** And the “safety reports relating to the circulatory system, share of all reports” value [5]?
**A.** 0.021%

**Q.** And the IC50 ([6]; ramp epoch)?
**A.** 12.1 µM

**Q.** And the IC50 ([6]; −15 mV epoch)?
**A.** 17.2 µM

**Q.** And the “recovery from block, rate fold faster than quinidine” value [7]?
**A.** 1.4 fold

**Q.** What about the “off-rate kinetics fold faster than flecainide” value ([7]; high concentration of lamotrigine) of the same compound?
**A.** > 86 fold

**Q.** What about the “τoff slow component, fold faster than quinidine's slow time constant” value ([7]; lamotrigine 25 μM) of the same compound?
**A.** 2.4 fold

**Q.** What about the “τoff Percent Fast” value ([7]; lamotrigine 25 µM, −120 mV) of the same compound?
**A.** 58.0%

**Q.** And the “τoff Tau fast” value ([7]; lamotrigine 25 µM, −120 mV)?
**A.** 0.8 ± 0.1 s

**Q.** And the “τoff Tau slow” value ([7]; lamotrigine 25 µM, −120 mV)?
**A.** 15.6 ± 5.0 s

**Q.** And the “percent of the maximum effect of flecainide” value [8]?
**A.** ~ 29%

**Q.** And the “expected increase in PR interval (absolute values)” value (at 15 μg/ml, healthy subjects, outlier included)?
**A.** 18.15 ms

**Q.** And the “decrease in QRS interval (absolute values)” value (at 15 μg/ml, outlier included)?
**A.** 5.94 ms

**Q.** What about the “expected PR prolongation relative to baseline” value (at ~20 μg/ml, highest peak concentrations reported in patients) of the same compound?
**A.** 8.24 ms

**Q.** And the “increase in PR interval as change from baseline” value (healthy subjects, outlier included)?
**A.** up to 6.18 ms

**Q.** And the “mean PR interval” value (human, in vivo)?
**A.** 169 ms

**Q.** And the “slope in PR change from baseline per μg/ml of lamotrigine” value (outlier included)?
**A.** 0.412 ms/µg/mL

**Q.** And the “subjects with QRS interval >120 ms while on lamotrigine” value (outlier included)?
**A.** None

**Q.** What about the IC50 ([9]; V hold = −95 mV, 0.1 Hz) of the same compound?
**A.** 28.8 µM and 28.9 µM

**Q.** And the IC50 ([9]; V hold = −120 mV)?
**A.** 280 µM

**Q.** What about the “concentrations expected in over 95% of patients” value [10] of the same compound?
**A.** below 15 μg/ml

**Q.** What about the “highest values for peak concentrations reported in patients” value [10] of the same compound?
**A.** ~ 20 μg/ml

**Q.** What about the “fold difference in potency at a depolarized potential” value [11] of the same compound?
**A.** 10 fold

**Q.** What about the “QTc interval, QRS duration, or blood pressure” value [12] of the same compound?
**A.** no increase

**Q.** And the QTcF [12]?
**A.** small reductions

**Q.** What about the “heart rate and mean PR interval” value [12] of the same compound?
**A.** small increases

**Q.** For `Cc1cccc(C)c1OCC(C)N` (centres unmarked) [mexiletine], which “τon Percent Fast” value [1] is on record?
**A.** 92.9% and > 92%

**Q.** And the “Tonic block of NaV1.5, percent inhibition” value ([2]; human)?
**A.** 9.2 ± 1.5%

**Q.** What about the “τoff Percent Fast” value [7] of the same compound?
**A.** 83.2%

**Q.** What about the “τoff Tau fast” value [7] of the same compound?
**A.** 0.8 ± 0.03 s

**Q.** With `C=C[C@H]1C[N@@]2CC[C@H]1C[C@@H]2[C@@H](O)c1ccnc2ccc(OC)cc12` [quinidine] as the compound, how does the “τon contribution by the slow component of the exponential” value [1, 13] read?
**A.** 26.1%

**Q.** What about the “Tonic block of NaV1.5, percent inhibition” value [2, 15] of the same compound?
**A.** 6.7 ± 1.2%

**Q.** And the “τoff Tau slow” value ([7]; each drug at or near its IC50, −120 mV)?
**A.** 37.7 ± 5.9 s
